Reference: the supplement of paper PMC4649846
Values joined by “and” are separate entries in the source; they are usually repeats but may differ in a detail not shown here. Equal values may be shown once.

How the values were obtained:
[1] = test system: MDA-MB-231; conditions: incubation time: 72 h
Experimental: (§1)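 MDA-MB-231 breast cancer cells were transfected with siBRCA1 or non-targeting siControl, then seeded 24 h later at 4000 cells/well in 384-well plates holding 198 drugs at 5 concentrations. Viability was read by CellTiter-Blue after 72 h at 37 °C. Dose-response curves were fitted in Dotmatics to give IC50 and a drug sensitivity score (DSS: area under the curve relative to the area between the 10% threshold and 100% inhibition, normalised by the log of the top response). The dose range is not stated. IC50 values of 8333.3 or 4166.7 nM mark no response (top dose), and 0.8333 nM is the lower limit.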

[2] = test system: MDA-MB-231; assay: drug sensitivity score (DSS); higher = more sensitive; extreme values may be limits of the assay; conditions: incubation time: 72 h
Experimental: as §1

[3] = siRNA: siControl (non-targeting)

Row | IC50 of cell viability ([1]; siRNA: siBRCA1) | IC50 of cell viability [1, 3] | SMILES | drug sensitivity score ([2]; siRNA: siBRCA1) | drug sensitivity score [2, 3]
1 | 835 nM | 821 nM | CC1(C)CCC(c2ccc(Cl)cc2)=C(CN2CCN(c3ccc(C(=O)NS(=O)(=O)c4ccc(N[C@H](CCN5CCOCC5)CSc5ccccc5)c(S(=O)(=O)C(F)(F)F)c4)cc3)CC2)C1 [Navitoclax] | 11 | 10.3
2 | 433 nM | 321 nM | C#Cc1cccc(Nc2ncnc3cc(OC)c(OCCCCCCC(=O)NO)cc23)c1 [CUDC-101] | 14.7 | 16.4
3 | 2530 nM | 570 nM | CS(=O)(=O)N1CCN(Cc2cc3nc(-c4cccc5[nH]ncc45)nc(N4CCOCC4)c3s2)CC1 [GDC-0941 (Pictilisib)] | 7.18 | 12
4 | 1.12 nM and < 0.833 nM | < 0.833 nM | CO[C@H]1C[C@@H]2CC[C@@H](C)[C@@](O)(O2)C(=O)C(=O)N2CCCC[C@H]2C(=O)O[C@H]([C@H](C)C[C@@H]2CC[C@@H](OCCO)[C@H](OC)C2)CC(=O)[C@H](C)/C=C(\C)[C@@H](O)[C@@H](OC)C(=O)[C@H](C)C[C@H](C)/C=C/C=C/C=C/1C [Everolimus] | 19.8 and 16.9 | 21.1 and 21.8
5 | 45.9 nM | 88.8 nM | COc1ccc(-c2ccc3c(N4CCOC[C@@H]4C)nc(N4CCOC[C@@H]4C)nc3n2)cc1CO [AZD8055] | 19.1 | 18.2
6 | 253 nM | 308 nM | COc1ccc(S(=O)(=O)Nc2cccnc2Nc2ccc(O)cc2)cc1 [ABT-751] | 13.9 | 13.5
7 | 31 nM | 23.6 nM | CCC1=C[C@@H]2CN(C1)Cc1c([nH]c3ccccc13)[C@@](C(=O)OC)(c1cc3c(cc1OC)N(C)[C@H]1[C@@](O)(C(=O)OC)[C@H](OC(C)=O)[C@]4(CC)C=CCN5CC[C@]31[C@@H]54)C2 [Vinorelbine] | 23.5 | 24
8 | > 4170 nM | > 4170 nM | C=CC[C@@H]1/C=C(\C)C[C@H](C)C[C@H](OC)[C@H]2O[C@@](O)(C(=O)C(=O)N3CCCC[C@H]3C(=O)O[C@H](/C(C)=C/[C@@H]3CC[C@@H](O)[C@H](OC)C3)[C@H](C)[C@@H](O)CC1=O)[C@H](C)C[C@@H]2OC [Tacrolimus] | 0 | 0
9 | > 4170 nM | > 4170 nM | Cn1nnc2c(C(N)=O)ncn2c1=O [Temozolomide] | 0 | 0
10 | 242 nM | 582 nM | NC(=O)Nc1cc(-c2cccc(F)c2)sc1C(=O)N[C@H]1CCCNC1 [AZD 7762] | 17.4 | 13.7
11 | > 4170 nM | 1410 nM | Cc1ccc(NC(=O)c2ccc(CN3CCN(C)CC3)cc2)cc1Nc1nc(-c2cccnc2)cs1 [Masitinib] | 0.717 | 4.31
12 | > 4170 nM | > 4170 nM | COc1cc2c(Oc3ccc4[nH]c(C)cc4c3F)ncnc2cc1OCCCN1CCCC1 [Cediranib] | 0.0221 | 0
13 | > 4170 nM | > 4170 nM | C[C@@H]1C[C@H]2[C@@H]3CCC4=CC(=O)C=C[C@]4(C)[C@@]3(F)[C@@H](O)C[C@]2(C)[C@@]1(O)C(=O)CO [Dexamethasone] | 0 | 0
14 | > 4170 nM | > 4170 nM | C[C@]12CC[C@H](O)CC1=CC[C@@H]1[C@@H]2CC[C@]2(C)C(c3cccnc3)=CC[C@@H]12 [Abiraterone] | 0 | 0
15 | 91.4 nM | 115 nM | CC(=O)[C@]1(O)Cc2c(O)c3c(c(O)c2[C@@H](O[C@H]2C[C@H](N)[C@H](O)[C@H](C)O2)C1)C(=O)c1ccccc1C3=O [Idarubicin] | 22 | 21
16 | 2880 nM | 91.8 nM | Nc1nc(Cl)nc2c1ncn2[C@H]1C[C@H](O)[C@@H](CO)O1 [Cladribine] | 5.2 | 9.09
17 | > 4170 nM | > 4170 nM | COc1cc2ncnc(Nc3ccc(F)c(Cl)c3)c2cc1OCCCN1CCOCC1 [Gefitinib] | 0 | 0
18 | 125 nM | 248 nM | CC(=O)c1c(C)c2cnc(Nc3ccc(N4CCNCC4)cn3)nc2n(C2CCCC2)c1=O | 6.11 | 9.43
19 | 1790 nM | 2160 nM | CN(C)CCN1C(=O)c2cccc3cc(N)cc(c23)C1=O [Amonafide] | 8.98 | 6.72
20 | > 4170 nM | > 4170 nM | CC(C)(C)c1cc(NC(=O)Nc2ccc(-c3cn4c(n3)sc3cc(OCCN5CCOCC5)ccc34)cc2)no1 [AC220] | 0 | 0.0185
21 | 267 nM | 173 nM | O=C(Nc1c[nH]nc1-c1nc2ccc(CN3CCOCC3)cc2[nH]1)NC1CC1 [AT9283] | 16.5 | 18.6

More lines, now with the values behind:

Row | SMILES | IC50 of cell viability ([1]; siRNA: siBRCA1) | IC50 of cell viability [1, 3] | drug sensitivity score ([2]; siRNA: siBRCA1) | drug sensitivity score [2, 3]
22 | C[C@]12O[C@H](C[C@]1(O)CO)n1c3ccccc3c3c4c(c5c6ccccc6n2c5c31)CNC4=O [Lestaurtinib] | 1400 nM | 794 nM | 8.59 | 11.3
23 | O=C(CCBr)N1CCN(C(=O)CCBr)CC1 [Pipobroman] | > 4170 nM | > 4170 nM | 1.55 | 0
24 | O=P1(NCCCl)OCCCN1CCCl (centres undefined) [Ifosfamide] | > 4170 nM | > 4170 nM | 0 | 0
25 | CN(N=O)C(=O)N[C@@H](C=O)[C@@H](O)[C@H](O)[C@H](O)CO [Streptozocin] | > 4170 nM | > 4170 nM | 0 | 0
26 | CNC(=O)c1cc(Oc2ccc(NC(=O)Nc3ccc(Cl)c(C(F)(F)F)c3)cc2)ccn1 [Sorafenib] | 2950 nM | 3500 nM | 5.25 | 4.57
27 | CCCCCCCCc1ccc(CCC(N)(CO)CO)cc1 [Fingolimod] | 3000 nM | 1710 nM | 5.09 | 7.79
28 | Nc1nc(Cl)nc2c1ncn2[C@@H]1O[C@H](CO)[C@@H](O)[C@@H]1F [Clofarabine] | 82.1 nM | 28.1 nM | 8.22 | 12.5
29 | CNC(=O)c1cc(Oc2ccc(NC(=O)Nc3ccc(Cl)c(C(F)(F)F)c3)c(F)c2)ccn1 [BAY 73-4506] | 900 nM | 813 nM | 4.52 | 2.71
30 | Nc1ncn([C@H]2C[C@H](O)[C@@H](CO)O2)c(=O)n1 [Decitabine] | > 4170 nM | > 4170 nM |  | 0
31 | CCC1(c2ccc(N)cc2)CCC(=O)NC1=O (centres undefined) [Aminoglutethimide] | > 4170 nM | > 4170 nM | 0 | 0
32 | O=C1c2c(O)ccc(O)c2C(=O)c2c(NCCNCCO)ccc(NCCNCCO)c21 [Mitoxantrone] | 143 nM | 134 nM | 19.5 | 19.9
33 | CC[C@@]1(O)C(=O)OCc2c1cc1n(c2=O)Cc2cc3ccccc3nc2-1 [Camptothecin] | 45.6 nM | 328 nM | 16.9 | 10.9
34 | NCC(=O)CCC(=O)O [Aminolevulinic acid] | > 4170 nM | > 4170 nM | 0 | 0
35 | Nc1ncn([C@@H]2O[C@H](CO)[C@@H](O)[C@H]2O)c(=O)n1 [Azacitidine] | > 4170 nM | > 4170 nM | 0 | 0
36 | C=C1C[C@@H]2[C@H](CC[C@]3(C)C(=O)CC[C@@H]23)[C@@]2(C)C=CC(=O)C=C12 [Exemestane] | > 4170 nM | > 4170 nM | 0 | 0
37 | CC/C(=C(\c1ccccc1)c1ccc(OCCN(C)C)cc1)c1ccccc1 [Tamoxifen] | > 4170 nM | > 4170 nM | 0 | 0
38 | CC(C)(C#N)c1cc(Cn2cncn2)cc(C(C)(C)C#N)c1 [Anastrozole] | > 4170 nM | > 4170 nM | 0 | 0
39 | S=c1[nH]cnc2nc[nH]c12 [Mercaptopurine] | > 4170 nM | 991 nM | 0 | 4.58
40 | CS(=O)(=O)OCCCCOS(C)(=O)=O [Busulfan] | > 4170 nM | > 4170 nM | 0 | 0
